Source: US20240246942A1, “KINASE INHIBITORS FOR THE TREATMENT OF NEURODEGENERATIVE DISEASES” (priority 2020, published 2024)

Legend:
Assay in all cases: biochemical
[1] = biological target: T1, panel of 374 wild-type kinases (Homo sapiens, UniProt O95835); settings: read-out: % Enzyme Activity (relative to DMSO controls), LATS1
T1 construct: purchased Reaction Biology Corporation
T1 sequence (O95835 1-1130): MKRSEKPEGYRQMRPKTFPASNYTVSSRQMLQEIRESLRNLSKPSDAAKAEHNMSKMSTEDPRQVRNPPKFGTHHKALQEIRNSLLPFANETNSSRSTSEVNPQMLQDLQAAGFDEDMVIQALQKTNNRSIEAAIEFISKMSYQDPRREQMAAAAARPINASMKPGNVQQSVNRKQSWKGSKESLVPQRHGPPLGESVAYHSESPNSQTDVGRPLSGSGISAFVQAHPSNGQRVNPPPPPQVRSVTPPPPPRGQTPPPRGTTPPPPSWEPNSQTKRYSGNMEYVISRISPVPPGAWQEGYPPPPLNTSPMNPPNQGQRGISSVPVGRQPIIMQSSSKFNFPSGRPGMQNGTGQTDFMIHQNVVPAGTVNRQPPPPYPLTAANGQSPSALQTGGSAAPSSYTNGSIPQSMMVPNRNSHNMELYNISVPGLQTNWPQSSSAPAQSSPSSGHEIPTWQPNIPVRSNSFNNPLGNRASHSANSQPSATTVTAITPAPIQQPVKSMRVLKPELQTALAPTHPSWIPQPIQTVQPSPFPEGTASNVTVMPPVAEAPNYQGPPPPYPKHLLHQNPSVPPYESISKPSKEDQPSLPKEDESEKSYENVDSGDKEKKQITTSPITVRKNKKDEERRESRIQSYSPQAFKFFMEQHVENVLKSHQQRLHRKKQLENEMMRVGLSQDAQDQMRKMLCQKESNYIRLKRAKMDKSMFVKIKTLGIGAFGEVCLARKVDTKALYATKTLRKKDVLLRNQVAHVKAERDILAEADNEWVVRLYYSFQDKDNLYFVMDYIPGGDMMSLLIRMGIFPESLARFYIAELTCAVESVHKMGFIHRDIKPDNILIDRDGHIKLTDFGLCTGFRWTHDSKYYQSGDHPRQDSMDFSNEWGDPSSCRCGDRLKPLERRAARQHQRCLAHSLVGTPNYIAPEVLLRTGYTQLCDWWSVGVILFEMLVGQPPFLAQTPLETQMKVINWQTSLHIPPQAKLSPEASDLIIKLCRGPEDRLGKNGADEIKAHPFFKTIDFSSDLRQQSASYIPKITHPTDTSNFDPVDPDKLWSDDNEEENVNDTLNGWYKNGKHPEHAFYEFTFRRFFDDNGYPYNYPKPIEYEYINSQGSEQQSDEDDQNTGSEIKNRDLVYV

[2] = biological target: T2, panel of 374 wild-type kinases (Homo sapiens, UniProt P15056); settings: read-out: % Enzyme Activity (relative to DMSO controls), BRAF
T2 construct: purchased Reaction Biology Corporation

[3] = biological target: T3, panel of 374 wild-type kinases (Homo sapiens, UniProt Q8IYT8); settings: read-out: % Enzyme Activity (relative to DMSO controls), kinase ULK2
T3 construct: purchased Reaction Biology Corporation
T3 sequence (Q8IYT8 1-1036): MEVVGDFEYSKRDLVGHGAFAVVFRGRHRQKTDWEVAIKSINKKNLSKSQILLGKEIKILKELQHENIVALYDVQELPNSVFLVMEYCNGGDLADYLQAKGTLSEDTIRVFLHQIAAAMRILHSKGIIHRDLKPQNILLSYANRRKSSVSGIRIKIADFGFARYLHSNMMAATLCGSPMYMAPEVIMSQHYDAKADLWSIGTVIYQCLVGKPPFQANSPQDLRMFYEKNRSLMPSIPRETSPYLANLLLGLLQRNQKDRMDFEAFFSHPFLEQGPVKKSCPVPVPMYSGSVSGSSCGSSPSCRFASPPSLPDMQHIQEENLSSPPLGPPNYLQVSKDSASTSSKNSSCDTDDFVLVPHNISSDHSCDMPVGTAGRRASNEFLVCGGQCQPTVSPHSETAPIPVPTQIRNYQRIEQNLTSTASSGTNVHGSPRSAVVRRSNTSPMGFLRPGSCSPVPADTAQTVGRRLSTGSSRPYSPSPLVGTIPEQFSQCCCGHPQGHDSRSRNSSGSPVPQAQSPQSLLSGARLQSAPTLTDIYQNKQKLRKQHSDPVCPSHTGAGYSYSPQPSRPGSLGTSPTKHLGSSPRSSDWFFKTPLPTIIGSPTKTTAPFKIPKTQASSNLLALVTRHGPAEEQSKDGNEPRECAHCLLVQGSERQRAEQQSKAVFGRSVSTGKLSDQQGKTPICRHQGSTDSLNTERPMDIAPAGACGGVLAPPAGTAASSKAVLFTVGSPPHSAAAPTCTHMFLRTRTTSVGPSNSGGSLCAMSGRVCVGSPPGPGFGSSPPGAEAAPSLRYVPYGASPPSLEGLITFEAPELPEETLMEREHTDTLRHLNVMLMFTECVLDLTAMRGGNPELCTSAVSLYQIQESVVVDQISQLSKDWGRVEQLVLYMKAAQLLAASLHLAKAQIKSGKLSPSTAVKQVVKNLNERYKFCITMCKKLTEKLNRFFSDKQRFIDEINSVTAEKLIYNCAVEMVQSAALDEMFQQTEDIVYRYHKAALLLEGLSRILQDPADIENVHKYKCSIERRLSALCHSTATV

[4] = biological target: T4, panel of 374 wild-type kinases (Homo sapiens, UniProt Q9H093); settings: read-out: % Enzyme Activity (relative to DMSO controls), kinase SNARK/NUAK2
T4 construct: purchased Reaction Biology Corporation
T4 sequence (Q9H093 1-628): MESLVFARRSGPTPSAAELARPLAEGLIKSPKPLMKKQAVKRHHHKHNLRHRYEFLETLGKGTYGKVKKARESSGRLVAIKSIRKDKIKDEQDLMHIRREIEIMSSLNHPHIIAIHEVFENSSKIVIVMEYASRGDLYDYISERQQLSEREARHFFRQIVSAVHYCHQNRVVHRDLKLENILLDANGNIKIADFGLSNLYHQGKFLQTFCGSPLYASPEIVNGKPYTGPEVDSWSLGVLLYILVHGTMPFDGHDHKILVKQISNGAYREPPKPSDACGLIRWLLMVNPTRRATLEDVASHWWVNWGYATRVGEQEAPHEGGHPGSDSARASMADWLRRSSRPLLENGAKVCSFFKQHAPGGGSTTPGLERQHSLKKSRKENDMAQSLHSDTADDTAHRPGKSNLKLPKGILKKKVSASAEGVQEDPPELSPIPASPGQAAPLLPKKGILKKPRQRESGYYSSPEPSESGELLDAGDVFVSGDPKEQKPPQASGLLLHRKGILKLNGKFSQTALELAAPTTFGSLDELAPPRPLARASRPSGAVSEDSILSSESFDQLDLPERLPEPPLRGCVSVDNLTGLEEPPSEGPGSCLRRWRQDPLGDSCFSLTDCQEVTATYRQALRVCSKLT

T2 sequence (P15056 whole entry): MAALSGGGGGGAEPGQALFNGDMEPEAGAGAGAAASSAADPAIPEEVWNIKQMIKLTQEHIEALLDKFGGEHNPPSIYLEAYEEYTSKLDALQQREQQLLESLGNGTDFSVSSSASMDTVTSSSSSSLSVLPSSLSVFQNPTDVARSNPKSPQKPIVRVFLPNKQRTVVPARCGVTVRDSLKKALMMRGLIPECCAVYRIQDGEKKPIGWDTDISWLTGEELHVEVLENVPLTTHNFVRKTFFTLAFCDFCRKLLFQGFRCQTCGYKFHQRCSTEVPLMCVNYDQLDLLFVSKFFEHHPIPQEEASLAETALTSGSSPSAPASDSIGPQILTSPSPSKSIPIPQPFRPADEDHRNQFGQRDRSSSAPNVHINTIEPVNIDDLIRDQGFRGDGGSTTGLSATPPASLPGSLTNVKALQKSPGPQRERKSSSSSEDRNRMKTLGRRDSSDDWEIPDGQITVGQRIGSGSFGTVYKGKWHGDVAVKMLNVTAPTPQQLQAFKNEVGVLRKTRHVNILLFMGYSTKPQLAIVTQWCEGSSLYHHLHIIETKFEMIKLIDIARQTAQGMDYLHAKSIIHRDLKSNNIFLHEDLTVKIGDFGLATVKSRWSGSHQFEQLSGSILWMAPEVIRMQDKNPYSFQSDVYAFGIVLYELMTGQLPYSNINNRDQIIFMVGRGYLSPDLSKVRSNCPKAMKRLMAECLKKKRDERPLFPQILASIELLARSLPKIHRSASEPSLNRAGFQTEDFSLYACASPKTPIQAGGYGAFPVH

Compound | remaining activity at 5 µM [1] [%] | remaining activity at 5 µM [2] [%] | remaining activity at 5 µM [3] [%] | remaining activity at 5 µM [4] [%] | remaining activity at 10 µM ([1]; 10 uM) [%] | remaining activity at 10 µM ([2]; 10 uM) [%] | remaining activity at 10 µM ([3]; 10 uM) [%] | remaining activity at 10 µM ([4]; 10 uM) [%]
O=C(Nc1cnn(-c2csc(C(=O)NC3COC3)c2)c1)Nc1ccccc1Cl [Compound 17, 4-(4-(3-(2-chlorophenyl)ureido)-1H-pyrazol-1-yl)-N-(oxetan-3-yl)thiophene-2-carboxamide] | 106 | 93.3 | 196 | 99.8 |  |  |  | 
O=C(Nc1cnn(-c2csc(C(=O)NC3COC3)c2)c1)Nc1c(F)cccc1Cl [Compound 25, 4-(4-(3-(2-chloro-6-fluorophenyl)ureido)-1H-pyrazol-1-yl)-N-(oxetan-3-yl)thiophene-2-carboxamide] | 93.5 | 99.9 | 105 | 97.8 |  |  |  | 
Cc1sc(C(=O)NC2COC2)cc1-n1cc(NC(=O)Nc2c(F)cccc2Cl)cn1 [Compound 27, 4-(4-(3-(2-chloro-6-fluorophenyl)ureido)-1H-pyrazol-1-yl)-5-methyl-N-(oxetan-3-yl)thiophene-2-carboxamide] |  |  |  |  | 97.2 | 105 | 74.9 | 112
